From PMC5413024, “Mechanistic insights into the more potent effect of KP-54 compared to KP-10 in vivo” (PLoS ONE, 2017)
Values after ≈ are worked out from the molar mass of the structure shown. Ends that are not written are not given here.

Experiments:
[1] = Study 4: pharmacokinetics of plasma kisspeptin after i.p. injection (radioimmunoassay); assay type: in vivo, mouse; conditions: male mice
Method: Male mice received a single i.p. injection of 1 nmol KP-10 or 1 nmol KP-54. 100 μl of blood was collected from the lateral tail vein from groups of mice (n = 4) for each time point (0, 1 min, 2 min, 5 min, 10 min, 30 min, 60 min and 120 min). Terminal bleeds were collected from the vena cava. Blood was mixed with 5 μl EDTA, centrifuged at 10,000 x g for 10 min at 4°C to obtain the plasma fraction, and stored at -20°C until assayed. Kisspeptin concentrations were measured using an established in house competitive radioimmunoassay (RIA, [5]. Briefly, this RIA uses a sheep polyclonal antibody (GQ2), raised against human KP-54, which cross-reacts with human KP-54, KP-14 and KP-10.
3–5 month old wild-type (129S6/SvEv) male mice were used in this study. The mice were housed in open cages on a 12 hour light cycle (lights on at 0700 h) at a controlled temperature (22°C), and were provided with food and water ad libitum. All experiments were performed under the authority of a United Kingdom Home Office Project License and were approved by a Cambridge Animal Ethics Committee.

[2] = from the product data sheets; ref product data sheets (manufacturer); cited from earlier work
Method: KP-10 [human Metastin (45–54) amide, M-2816] was purchased from Sigma-Aldrich. KP-10 consists of the C-terminal 10-amino acids of KP-54. Human KP-54 was synthesized by the Advanced Biotechnology Centre, Imperial College, London, UK. BSA-FITC was purchased from Sigma (A9771). From the product data sheets, the solubility of KP-10 and KP-54 in water is 1mg/ml. We prepared stock solutions in sterile PBS at 100 μM, which is almost ten times lower than the solubility limit set by the manufacturer. The 100 μM stock solution was diluted in sterile PBS and 100 μl of the working solution was injected to ...

[3] = men / humans; ref [5], [30] (KP-10), ref [5] (KP-54); cited from earlier work
Excerpt: It should be noted, however that the RIA used to measure KP-54 may also detect shorter breakdown products of this protein that might be biologically inert. It is likely that the lack of GnRH neuronal activation and sustained LH release by KP-10 is mainly due to its instability. It is noteworthy that we failed ...

LH secretion = assay: S1 Fig: plasma LH after i.p. injection of penetratin-extended Kp10; assay type: in vivo, mouse; conditions: single 100 μl i.p. injection, blood at 10 min and 2 hrs, n = 2 per treatment
Method: Supplementary file pone.0176821.s001.tif: S1 Fig Kisspeptin-penetratin treatment. This experiment aimed at facilitating Kp10 to cross the blood-brain-barrier by adding a penetratin extension to the […] end of Kp10, thereby putatively provided with higher permeability. Two penetratin variants were tested: the pen(ala2) residue has a lower protein transduction domain activity than pen-Kp10. […] Each animal received a single 100 μl i.p. injection of either PBS, Kp10, Kp54, Pen-Kp10 or Pen(ala2)-Kp10. Blood samples were collected at 10 min (from tail vein) and 2 hrs (from vena cava upon sacrifice) time points after administration. […] (TIF) Click here for additional data file.

peak (maximum) plasma kisspeptin level ([1]; 1 nmol i.p., RIA (GQ2 antibody), mean ± SEM, n = 4 per time point) [pmol/L]	plasma kisspeptin level by 10 min post-injection ([1]; 1 nmol i.p., RIA, n = 4)	time of peak plasma kisspeptin level post-injection ([1]; 1 nmol i.p., RIA, n = 4 per time point) [min]	plasma half-life ([1]; 1 nmol i.p., estimated from RIA plasma levels, RIA recognises all forms of Kp, may include breakdown products)	fraction of the injected peptide entering the bloodstream after intraperitoneal injection ([1]; 1 nmol i.p., assuming a total blood volume of approximately 5 ml)	peak level in the bloodstream, times lower than that of KP-54 ([1]; equimolar 1 nmole i.p., 250 pmol/L vs 12000 pmol/L) [times]	Compound	solubility in water [2] [µg/mL]	half-life in the blood stream in humans [3] [min]	effect of penetratin extension on Kp10-induced LH secretion (LH secretion)
248 ± 9	undetectable	2	about 4 min	around 0.13%	~50	CC(C)C[C@H](NC(=O)CNC(=O)[C@H](Cc1ccccc1)NC(=O)[C@H](CO)NC(=O)[C@H](CC(N)=O)NC(=O)[C@H](Cc1c[nH]c2ccccc12)NC(=O)[C@H](CC(N)=O)NC(=O)[C@@H](N)Cc1ccc(O)cc1)C(=O)N[C@@H](CCCNC(=N)N)C(=O)N[C@@H](Cc1ccccc1)C(N)=O [KP-10, human Metastin (45–54) amide]	1000 (≈ 768 µM)	3.8	–
–	–	–	–	–	–	NRRMAWAKYYNWNSFGLRF-NH2 [Pen(ala2)-Kp10]	–	–	does not improve the Kp10-induced LH secretion
–	–	–	–	–	–	NRRMKWKKYYNWNSFGLRF-NH2 [Pen-Kp10]	–	–	does not improve the Kp10-induced LH secretion
